Experimental data as given in the supplement of paper PMC5908809.

Columns and labels:
[1] = system: normal primary NK cells, pool 3 (3 donors) (IL-2 2.5 ng/mL); test: percent inhibition of viability; higher = more inhibition; settings: 72 h
YT (IL-2 2.5 ng/mL) [2] = test: as above; settings: 72 h
NK-YS (IL-2 2.5 ng/mL) [3] = test: as above; settings: 72 h
KHYG-1 (IL-2 2.5 ng/mL) [4] = test: as above; settings: 72 h
[5] = system: normal primary NK cells, pool 1 (3 donors), resting (IL-2 0 ng/mL); test: as above; settings: 72 h
KAI3 (IL-2 2.5 ng/mL) [6] = test: as above; settings: 72 h
NK-92 (IL-2 2.5 ng/mL) [7] = test: as above; settings: 72 h
NKL (IL-2 2.5 ng/mL) [8] = test: as above; settings: 72 h
[9] = system: normal primary NK cells, pool 2 (3 donors) (IL-2 2.5 ng/mL); test: as above; settings: 72 h
DERL-7 (IL-2 2.5 ng/mL) [10] = test: as above; settings: 72 h
SNK-6 (IL-2 2.5 ng/mL) [11] = test: as above; settings: 72 h
[12] = system: normal primary NK cells, pool 1 (3 donors) (IL-2 2.5 ng/mL); test: as above; settings: 72 h
IMC-1 (IL-2 20 ng/mL) [13] = test: as above; settings: 72 h
[14] = system: normal NK cells expanded with K562-aAPC; test: drug sensitivity score (DSS) (DSS units); higher = more sensitive; extreme values may be limits of the assay; settings: 72 h; IL-2 2.5 ng/mL
Procedure: (§1)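 Drug sensitivity and resistance testing on K562-aAPC-expanded normal NK cells: 5 concentrations (10-fold steps over a 10,000-fold range), 72 h at 37 °C, viability by CellTiter-Glo normalised to DMSO and benzethonium chloride controls; DSS from the fitted curve.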

[15] = system: normal primary NK cells, pool 3 (3 donors) (IL-2 2.5 ng/mL); test: as above; settings: 72 h
YT (IL-2 2.5 ng/mL) [16] = test: as above; settings: 72 h
NK-YS (IL-2 2.5 ng/mL) [17] = test: as above; settings: 72 h
KHYG-1 (IL-2 2.5 ng/mL) [18] = test: as above; settings: 72 h
[19] = system: normal primary NK cells, pool 1 (3 donors), resting (IL-2 0 ng/mL); test: as above; settings: 72 h
KAI3 (IL-2 2.5 ng/mL) [20] = test: as above; settings: 72 h
NK-92 (IL-2 2.5 ng/mL) [21] = test: as above; settings: 72 h
NKL (IL-2 2.5 ng/mL) [22] = test: as above; settings: 72 h
[23] = system: normal primary NK cells, pool 2 (3 donors) (IL-2 2.5 ng/mL); test: as above; settings: 72 h
DERL-7 (IL-2 2.5 ng/mL) [24] = test: as above; settings: 72 h
SNK-6 (IL-2 2.5 ng/mL) [25] = test: as above; settings: 72 h
[26] = system: normal primary NK cells, pool 1 (3 donors) (IL-2 2.5 ng/mL); test: as above; settings: 72 h
IMC-1 (IL-2 20 ng/mL) [27] = test: as above; settings: 72 h
[28] = system: normal NK cells expanded with K562-aAPC; test: percent inhibition of viability; higher = more inhibition; settings: 72 h, IL-2 2.5 ng/mL
Procedure: as §1

Cc1[nH]c2ccccc2c1CCNCc1ccc(/C=C/C(=O)NO)cc1 [Panobinostat] (max concentration tested 1000 nM)
percent inhibition of viability [%]
Settings | 0.1 nM | 1 nM | 10 nM | 100 nM | 1000 nM
DERL-7 (IL-2 2.5 ng/mL) [10] | -11.8 | -4.71 | 36.5 | 100 | 100
IMC-1 (IL-2 20 ng/mL) [13] | -2.07 | -6.63 | 2.44 | 100 | 100
KAI3 (IL-2 2.5 ng/mL) [6] | 4.1 | 14.2 | 61.8 | 101 | 101
KHYG-1 (IL-2 2.5 ng/mL) [4] | -7.12 | -8.38 | 22.6 | 101 | 101
NK-92 (IL-2 2.5 ng/mL) [7] | -5.27 | -2.71 | 34 | 98.1 | 101
NK-YS (IL-2 2.5 ng/mL) [3] | -8.83 | -9.94 | 19.8 | 97.1 | 98.8
NKL (IL-2 2.5 ng/mL) [8] | -1.46 | 1.8 | 61.1 | 101 | 100
SNK-6 (IL-2 2.5 ng/mL) [11] | -14.8 | 4.53 | 31.4 | 98.9 | 99.6
YT (IL-2 2.5 ng/mL) [2] | 0.21 | -1.12 | 12.8 | 101 | 98.4
[1] | -7.01 | -2.67 | 31.6 | 97.8 | 98.5
[5] | -10.7 | 2.83 | 67 | 89.2 | 90.8
[9] | -7.26 | -4.93 | 64.8 | 94.5 | 94.9
[12] | 0.27 | -4.7 | 33.9 | 97 | 97.5
[28] | 0.2 | 2.99 | 33.4 | 99.8 | 99.8

Settings | drug sensitivity score
DERL-7 (IL-2 2.5 ng/mL) [24] | 23
IMC-1 (IL-2 20 ng/mL) [27] | 18.3
KAI3 (IL-2 2.5 ng/mL) [20] | 26
KHYG-1 (IL-2 2.5 ng/mL) [18] | 21.6
NK-92 (IL-2 2.5 ng/mL) [21] | 22.5
NK-YS (IL-2 2.5 ng/mL) [17] | 21
NKL (IL-2 2.5 ng/mL) [22] | 25.2
SNK-6 (IL-2 2.5 ng/mL) [25] | 22.1
YT (IL-2 2.5 ng/mL) [16] | 20.1
[14] | 22.6
[15] | 22.3
[19] | 24.6
[23] | 24.6
[26] | 22.3

OC[C@H]1O[C@@H](n2cnc3c2N=CNC[C@H]3O)C[C@@H]1O [Pentostatin] (max concentration tested 10000 nM)
percent inhibition of viability [%]
Settings | 1 nM | 10 nM | 100 nM | 1000 nM | 10000 nM
DERL-7 (IL-2 2.5 ng/mL) [10] | -9.03 | 2.32 | -10.5 | -5.23 | -4.31
IMC-1 (IL-2 20 ng/mL) [13] | 0.7 | -6.1 | 1.22 | 0.79 | 10.6
KAI3 (IL-2 2.5 ng/mL) [6] | -10.6 | -16.4 | -2.67 | -7.59 | -0.36
KHYG-1 (IL-2 2.5 ng/mL) [4] | -3.74 | -3.32 | 0.86 | 5.07 | 5.26
NK-92 (IL-2 2.5 ng/mL) [7] | -4 | -10.1 | -2.52 | -6.44 | 6.47
NK-YS (IL-2 2.5 ng/mL) [3] | -2.76 | -5.13 | -3.05 | 6.9 | 9.33
NKL (IL-2 2.5 ng/mL) [8] | -20.9 | -21.1 | -17.4 | -6.93 | -7.04
SNK-6 (IL-2 2.5 ng/mL) [11] | 4.13 | 3.89 | 8.33 | 34 | 20.9
YT (IL-2 2.5 ng/mL) [2] | -4.24 | -0.68 | 3.36 | 4.3 | 8.72
[1] | -11.3 | -12.5 | -7.39 | -4.5 | 11.5
[5] | -7.98 | 1.6 | -13.1 | -28.3 | -7.61
[9] | -9.21 | -12.2 | -5.88 | -13.3 | 1.05
[12] | -3.11 | 3.31 | -8.32 | -5.87 | 1.1
[28] | 0.75 | -2.98 | 3.38 | 6.95 | 8.99

Settings | drug sensitivity score
DERL-7 (IL-2 2.5 ng/mL) [24] | 0
IMC-1 (IL-2 20 ng/mL) [27] | 0
KAI3 (IL-2 2.5 ng/mL) [20] | 0
KHYG-1 (IL-2 2.5 ng/mL) [18] | 0
NK-92 (IL-2 2.5 ng/mL) [21] | 0
NK-YS (IL-2 2.5 ng/mL) [17] | 0
NKL (IL-2 2.5 ng/mL) [22] | 0
SNK-6 (IL-2 2.5 ng/mL) [25] | 7.04
YT (IL-2 2.5 ng/mL) [16] | 0
[14] | 0
[15] | 0
[19] | 0
[23] | 0
[26] | 0

CC[C@@H]1C(=O)OC[C@@H]1Cc1cncn1C [Pilocarpine] (max concentration tested 40000 nM)
percent inhibition of viability [%]
Settings | 4 nM | 40 nM | 400 nM | 4000 nM | 40000 nM
DERL-7 (IL-2 2.5 ng/mL) [10] | 1.42 | -1.75 | 0.14 | 2.27 | -9.94
IMC-1 (IL-2 20 ng/mL) [13] | 0.9 | 2.74 | 3.37 | 7.24 | 10.8
KAI3 (IL-2 2.5 ng/mL) [6] | -4.19 | -2.59 | -0.69 | 0.97 | 10.8
KHYG-1 (IL-2 2.5 ng/mL) [4] | -5.1 | 0.26 | 0.29 | 8.1 | 13.5
NK-92 (IL-2 2.5 ng/mL) [7] | -3.6 | -6.46 | -0.49 | 3.22 | 17.6
NK-YS (IL-2 2.5 ng/mL) [3] | -0.26 | 2 | 1.94 | 9.78 | 16
NKL (IL-2 2.5 ng/mL) [8] | 0.76 | -2.78 | 1.71 | 1.49 | 4.41
SNK-6 (IL-2 2.5 ng/mL) [11] | 7.63 | 1.2 | 25.3 | 7.63 | 17.4
YT (IL-2 2.5 ng/mL) [2] | 0.63 | -1.77 | 4.55 | 7.37 | 12.4
[1] | -10.7 | -14.3 | -6.23 | 1.83 | -3.82
[5] | 2.62 | 11.3 | -11.4 | 2.11 | -5.32
[9] | -4.81 | -4.05 | -0.5 | 4.72 | -5.35
[12] | -1.79 | 4.63 | -1.46 | 6 | 3.9
[28] | -3.76 | -0.92 | 0.04 | 4.29 | 9.84

Settings | drug sensitivity score
DERL-7 (IL-2 2.5 ng/mL) [24] | 0
IMC-1 (IL-2 20 ng/mL) [27] | 0
KAI3 (IL-2 2.5 ng/mL) [20] | 0.01
KHYG-1 (IL-2 2.5 ng/mL) [18] | 0.51
NK-92 (IL-2 2.5 ng/mL) [21] | 0.79
NK-YS (IL-2 2.5 ng/mL) [17] | 0.76
NKL (IL-2 2.5 ng/mL) [22] | 0
SNK-6 (IL-2 2.5 ng/mL) [25] | 0
YT (IL-2 2.5 ng/mL) [16] | 0.14
[14] | 0
[15] | 0
[19] | 0
[23] | 0
[26] | 0
